Results published in patent US20090233910A1, “Npy antagonists, preparation and uses” (CEREP, priority 2005, published 2009).

Columns and labels:
human Y5 receptor = target: T1, human Y5 receptor (Homo sapiens, UniProt Q15761); experiment: Binding test to the NPY Y5 receptor ([125I]-human PYY, CHO cell membranes)
T1 construct: expressed in transfected cells; host or cells: CHO cells (CHO-Y5H), membrane preparation
T1 sequence (Q15761 1-445): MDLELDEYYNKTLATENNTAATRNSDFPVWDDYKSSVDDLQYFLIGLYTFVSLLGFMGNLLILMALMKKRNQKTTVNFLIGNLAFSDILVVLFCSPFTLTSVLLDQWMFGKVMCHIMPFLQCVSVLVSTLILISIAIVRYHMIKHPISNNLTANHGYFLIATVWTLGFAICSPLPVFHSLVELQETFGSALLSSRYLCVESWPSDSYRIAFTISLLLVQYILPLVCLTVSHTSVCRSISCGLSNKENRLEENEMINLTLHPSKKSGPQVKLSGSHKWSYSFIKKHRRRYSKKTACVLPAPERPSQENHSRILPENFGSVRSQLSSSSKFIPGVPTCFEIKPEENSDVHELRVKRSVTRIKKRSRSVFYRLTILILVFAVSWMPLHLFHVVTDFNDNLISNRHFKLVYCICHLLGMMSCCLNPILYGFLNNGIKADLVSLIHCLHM
Description: (§1) The CHO cells expressing either the Y4 or the Y5 human recombinant receptor are cultured in DMEM medium to which is added 5% dialysed foetal calf serum, 10 mM Hepes buffer and 0.8 g/l sodium bicarbonate. They are lifted from their support using a 36 mM citrate buffer without trypsin and without EDTA, and washed in PBS buffer free of Ca^2+ and of Mg^2+. The cell residues are stored at (−80° C.) until fractioning.
(§2) The cell residue is redissolved in 10 mM TRIS buffer, 3 mM MgCl2, pH 7.4 and separated with polytron. After centrifuging at 20 000×g the residue is redissolved in this same buffer, potter separated and aliquoted for storage in liquid nitrogen to around 5 mg/ml proteins.
(§3) Approximately 80 μg of membranes of CHO cells having stable expression of the human Y5 receptor are incubated for 60 min at 30° C. in 200 μl Krebs-Ringer buffer (pH 7.4) containing 20 mM Hepes, 1% bovine serum albumin, 0.25 mg/ml bacitracin and 0.1 nM of [^125I]-human PYY (Perkin Elmer, NEX 341). The reaction is halted by filtering through Wathman GF/C filters and washing with 3 times 4 ml of buffer at 4° C. The radioactivity deposited on the filter is counted with a gamma counter (Whizard 1470, Wallac, Perkin Elmer). Non-specific binding is determined in the presence of 0.3 μM porcine NPY (Neosystem, SC116). […]

human Y4 receptor = target: T2, human Y4 receptor (Homo sapiens, UniProt P50391); experiment: Binding test to the NPY Y4 receptor ([125I]-human PP, CHO cell membranes); conditions: human Y4, [125I]-human PP
T2 construct: expressed in transfected cells; host or cells: CHO cells (CHO-Y4H), membrane preparation
T2 sequence (P50391 whole entry): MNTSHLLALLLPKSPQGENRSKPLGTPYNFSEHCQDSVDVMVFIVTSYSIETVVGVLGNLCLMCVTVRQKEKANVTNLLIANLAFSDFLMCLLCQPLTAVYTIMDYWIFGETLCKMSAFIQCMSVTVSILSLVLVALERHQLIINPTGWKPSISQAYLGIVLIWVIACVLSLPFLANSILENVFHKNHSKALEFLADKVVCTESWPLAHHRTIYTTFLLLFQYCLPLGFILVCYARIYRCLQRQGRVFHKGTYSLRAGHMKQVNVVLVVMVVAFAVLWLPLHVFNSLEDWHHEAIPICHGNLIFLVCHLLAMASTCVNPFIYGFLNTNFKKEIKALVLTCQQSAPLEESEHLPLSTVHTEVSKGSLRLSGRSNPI
Description: as §1, §2
as §3, with “Y4” for “Y5”, “PP (Pancreatic Polypeptide, Perkin” for “PYY (Perkin”, “315).” for “341).”, “of human PP” for “porcine NPY”, “SC104).” for “SC116).”

NPY Y1 receptor = target: T3, NPY Y1 receptor (Homo sapiens, UniProt P25929); experiment: cAMP measurement test in SK-N-MC cells (shift of NPY dose-effect curves, forskoline-stimulated); assay type: cell-based; conditions: Schild analysis vs NPY, read-out: pA2 Y1 (converted)
T3 construct: host or cells: SK-N-MC cells (whole-cell suspension)
T3 sequence (P25929 1-384): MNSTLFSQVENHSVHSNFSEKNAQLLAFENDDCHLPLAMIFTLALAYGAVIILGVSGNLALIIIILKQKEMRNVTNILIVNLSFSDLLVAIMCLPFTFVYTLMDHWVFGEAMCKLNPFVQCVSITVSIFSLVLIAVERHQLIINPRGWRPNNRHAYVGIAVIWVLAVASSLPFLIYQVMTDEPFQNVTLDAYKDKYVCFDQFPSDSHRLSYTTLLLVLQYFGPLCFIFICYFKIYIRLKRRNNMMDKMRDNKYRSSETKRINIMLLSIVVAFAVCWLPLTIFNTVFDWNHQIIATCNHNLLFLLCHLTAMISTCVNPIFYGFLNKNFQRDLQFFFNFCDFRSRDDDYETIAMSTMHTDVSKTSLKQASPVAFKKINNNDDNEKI
Description: The SK-N-MC cells are cultured in 96-well plates. After aspirating the culture medium, the cells are washed with a phosphate buffer pH 7.4 (Invitrogen ref. 14190-094), then lifted with a Versene solution (Invitrogen, ref 15040-033). The cells are centrifuged at 500×g for 10 minutes at 4° C. They are resuspended in a stimulation buffer containing isobutyl-methyl-xanthine in sufficient concentration to inhibit the phosphodiesterases (Flashplate kit, Perkin Elmer). The tested compounds are added 10 minutes before depositing the NPY (Bachem, H3322) in variable concentration, then the 300 nM forskoline (Sigma, F6886). The cells are in cubated 1 hour at ambient temperature to allow cAMP production whose levels are measured using the Flashplate method after 2 hours incubation with the cAMP tracer [^125I]. The results are expressed in pA2 form observing the displacement of NPY dose-effect curves in the absence and presence of increasing concentrations of test compound [Schild, 1949, pAx and competitive drug antagonism, Br. J. Pharmacol., 4, 277-280].

IC50 (human Y5 receptor; CHO membranes, human Y5, [125I]-human PYY): > 10000 nM
inhibition at 10 µM (human Y5 receptor; inhibition of specific binding at 10 μM of compound, read-out: % Inh at 10 μM Y5): 0%
IC50 (human Y4 receptor): 2620 nM
Kb (NPY Y1 receptor): 6.31 nM
SMILES: CCCCN1CCC(Oc2ccc(C(=O)Nc3ccc(Oc4ccc(NC(=O)NC(CC)CC)cc4OC)cc3)cc2)CC1 [Example 103, 4-(1-Butyl-piperidin-4-yloxy)-N-(4-{4-[3-(1-ethyl-propyl)-ureido]-2-methoxy-phenoxy}-phenyl)-benzamide]
